According to patent publication US20220401589A1, “PRE-TARGETING IMAGING AGENTS” (Eli Lilly and Company, priority 2019, published 2022):

Legend:
[1] = Reduction of tetrazine moiety by ascorbate formulation; format: physicochemical
Text: In another aspect the present embodiments provide a pharmaceutical composition comprising Compound 1 or Compound 2, or pharmaceutically acceptable salt thereof, which is formulated in ethanol (such as, for example 10% EtOH (v/v)) and buffer (which may be PBS buffer), preferably for use in humans. […] Thus, although ascorbate formulation is readily used in many formulations for imaging, it may not be suitable for imaging with the compounds of Formula I or Formula II.

[2] = Dynamic PET-CT imaging, tracer uptake in brain, muscle and bone; format: in vivo, Male CD-1 mice; conditions: for Bone Mean / Brain Mean / Muscle Mean: 60 minute PET scan
Procedure: PET-CT imaging of [^18F]—N-(4-(1,2,4,5-tetrazin-3-yl)benzyl)-4-fluorobenzamide
A Siemens Inveon® Multimodality Scanner (Siemens, Germany) is used for micro PET/CT imaging. Male CD-1 (6-week-old, ˜30 g) mice are anesthetized with 3% isoflurane/97% oxygen and placed on the bed of the scanner. The mice are administered [^18F]—N-(4-(1,2,4,5-tetrazin-3-yl)benzyl)-4-fluorobenzamide via a bolus intravenous tail vein injection (˜[…] in a total volume of 200 μL saline). A total of six (four 60 min and two 90 min) dynamic PET scans are conducted, followed by a short high-resolution CT scan for anatomical registration. PET images are generated for each minute of the acquisition time. Uptake of the tracer in the brain, muscle, and bone are determined by visually drawing regions of interest (ROIs) based on the fused PET/CT images and the corresponding activity values are determined using the Inveon® Research Workplace software. All values are represented as % injected dose per gram (% ID/g).
Bone uptake throughout the scan period remained low, consistent with an absence of defluorination for this tracer. Results of the 90 min scans are similar to the 60 min scan results with peak brain uptake observed at 3.4% ID/g at 2.5 min post injection followed by an immediate wash out to 0.6% ID/g by 59.5 min. Residual uptake is also observed throughout the body of the mouse. Time activity curves are generated for [^18F]—N-(4-(1,2,4,5-tetrazin-3-yl)benzyl)-4-fluorobenzamide in CD-1 male mice (n=4). Data is shown in graphical format in FIGS. 1A and 1B and in tabular format below.

Q: With O=C(NCc1ccc(-c2nncnn2)cc1)c1ccc(F)cc1 [Compound 1, N-(4-(1,2,4,5-tetrazin-3-yl)benzyl)-4-fluorobenzamide] as the compound, how does the “reduction of the tetrazine moiety” value [1] read?
A: readily reduced

Q: Which “reduction of the tetrazine moiety” value [1] does the source give for O=C(NCc1ccc(-c2nncnn2)cc1)c1ccc([18F])cc1 [[^18F]—N-(4-(1,2,4,5-tetrazin-3-yl)benzyl)-4-fluorobenzamide] here?
A: readily reduced

Q: And the “Uptake throughout the body” value ([2]; 60-minute PET scans)?
A: observed throughout the body in organs such as the liver, kidneys and heart

Q: And the “Bone Mean” value ([2]; time 2.5 min)?
A: 1.28 % ID/g

Q: And the “Brain Mean” value ([2]; time 2.5 min)?
A: 4.06 % ID/g

Q: What about the “Muscle Mean” value ([2]; time 2.5 min) of the same compound?
A: 1.14 % ID/g

Q: And the “Bone Mean” value ([2]; time 3.5 min)?
A: 1.09 % ID/g

Q: What about the “Brain Mean” value ([2]; time 3.5 min) of the same compound?
A: 3.70 % ID/g

Q: What about the “Muscle Mean” value ([2]; time 3.5 min) of the same compound?
A: 1.13 % ID/g

Q: And the “Bone Mean” value ([2]; time 4.5 min)?
A: 1.04 % ID/g

Q: And the “Brain Mean” value ([2]; time 4.5 min)?
A: 3.36 % ID/g

Q: And the “Muscle Mean” value ([2]; time 4.5 min)?
A: 1.15 % ID/g

Q: What about the “Bone Mean” value ([2]; time 5.5 min) of the same compound?
A: 1.01 % ID/g

Q: What about the “Brain Mean” value ([2]; time 5.5 min) of the same compound?
A: 3.20 % ID/g

Q: And the “Muscle Mean” value ([2]; time 5.5 min)?
A: 1.17 % ID/g

Q: And the “Bone Mean” value ([2]; time 6.5 min)?
A: 1.07 % ID/g

Q: What about the “Brain Mean” value ([2]; time 6.5 min) of the same compound?
A: 3.01 % ID/g

Q: And the “Muscle Mean” value ([2]; time 6.5 min)?
A: 1.10 % ID/g

Q: What about the “Bone Mean” value ([2]; time 7.5 min) of the same compound?
A: 1.12 % ID/g

Q: And the “Brain Mean” value ([2]; time 7.5 min)?
A: 2.81 % ID/g

Q: What about the “Muscle Mean” value ([2]; time 7.5 min) of the same compound?
A: 1.11 % ID/g

Q: And the “Bone Mean” value ([2]; time 8.5 min)?
A: 1.04 % ID/g

Q: And the “Brain Mean” value ([2]; time 8.5 min)?
A: 2.62 % ID/g

Q: And the “Muscle Mean” value ([2]; time 8.5 min)?
A: 1.15 % ID/g

Q: What about the “Bone Mean” value ([2]; time 9.5 min) of the same compound?
A: 0.97 % ID/g

Q: And the “Brain Mean” value ([2]; time 9.5 min)?
A: 2.46 % ID/g

Q: And the “Muscle Mean” value ([2]; time 9.5 min)?
A: 1.09 % ID/g

Q: And the “Bone Mean” value ([2]; time 10.5 min)?
A: 1.03 % ID/g

Q: And the “Brain Mean” value ([2]; time 10.5 min)?
A: 2.32 % ID/g

Q: And the “Muscle Mean” value ([2]; time 10.5 min)?
A: 1.09 % ID/g

Q: And the “Bone Mean” value ([2]; time 11.5 min)?
A: 1.01 % ID/g

Q: And the “Brain Mean” value ([2]; time 11.5 min)?
A: 2.17 % ID/g

Q: What about the “Muscle Mean” value ([2]; time 11.5 min) of the same compound?
A: 1.08 % ID/g

Q: And the “Bone Mean” value ([2]; time 12.5 min)?
A: 0.93 % ID/g

Q: And the “Brain Mean” value ([2]; time 12.5 min)?
A: 2.07 % ID/g

Q: And the “Muscle Mean” value ([2]; time 12.5 min)?
A: 1.06 % ID/g

Q: What about the “Bone Mean” value ([2]; time 13.5 min) of the same compound?
A: 0.96 % ID/g

Q: And the “Brain Mean” value ([2]; time 13.5 min)?
A: 1.97 % ID/g

Q: And the “Muscle Mean” value ([2]; time 13.5 min)?
A: 1.06 % ID/g

Q: And the “Bone Mean” value ([2]; time 14.5 min)?
A: 0.78 % ID/g

Q: And the “Brain Mean” value ([2]; time 14.5 min)?
A: 1.88 % ID/g

Q: And the “Muscle Mean” value ([2]; time 14.5 min)?
A: 1.00 % ID/g

Q: And the “Bone Mean” value ([2]; time 15.5 min)?
A: 0.89 % ID/g

Q: What about the “Brain Mean” value ([2]; time 15.5 min) of the same compound?
A: 1.79 % ID/g

Q: And the “Muscle Mean” value ([2]; time 15.5 min)?
A: 1.02 % ID/g

Q: What about the “Bone Mean” value ([2]; time 16.5 min) of the same compound?
A: 0.96 % ID/g

Q: What about the “Brain Mean” value ([2]; time 16.5 min) of the same compound?
A: 1.70 % ID/g

Q: And the “Muscle Mean” value ([2]; time 16.5 min)?
A: 1.02 % ID/g

Q: What about the “Bone Mean” value ([2]; time 17.5 min) of the same compound?
A: 0.87 % ID/g

Q: And the “Brain Mean” value ([2]; time 17.5 min)?
A: 1.64 % ID/g

Q: And the “Muscle Mean” value ([2]; time 17.5 min)?
A: 1.03 % ID/g

Q: And the “Bone Mean” value ([2]; time 18.5 min)?
A: 0.92 % ID/g

Q: What about the “Brain Mean” value ([2]; time 18.5 min) of the same compound?
A: 1.58 % ID/g

Q: What about the “Muscle Mean” value ([2]; time 18.5 min) of the same compound?
A: 1.05 % ID/g

Q: And the “Bone Mean” value ([2]; time 19.5 min)?
A: 0.93 % ID/g

Q: What about the “Brain Mean” value ([2]; time 19.5 min) of the same compound?
A: 1.52 % ID/g

Q: And the “Muscle Mean” value ([2]; time 19.5 min)?
A: 0.94 % ID/g

Q: What about the “Bone Mean” value ([2]; time 20.5 min) of the same compound?
A: 1.01 % ID/g

Q: And the “Brain Mean” value ([2]; time 20.5 min)?
A: 1.47 % ID/g

Q: What about the “Muscle Mean” value ([2]; time 20.5 min) of the same compound?
A: 0.95 % ID/g

Q: What about the “Bone Mean” value ([2]; time 21.5 min) of the same compound?
A: 0.88 % ID/g

Q: And the “Brain Mean” value ([2]; time 21.5 min)?
A: 1.42 % ID/g

Q: And the “Muscle Mean” value ([2]; time 21.5 min)?
A: 1.06 % ID/g

Q: What about the “Bone Mean” value ([2]; time 22.5 min) of the same compound?
A: 0.99 % ID/g

Q: What about the “Brain Mean” value ([2]; time 22.5 min) of the same compound?
A: 1.38 % ID/g

Q: And the “Muscle Mean” value ([2]; time 22.5 min)?
A: 1.04 % ID/g

Q: What about the “Bone Mean” value ([2]; time 23.5 min) of the same compound?
A: 0.85 % ID/g

Q: And the “Brain Mean” value ([2]; time 23.5 min)?
A: 1.33 % ID/g

Q: And the “Muscle Mean” value ([2]; time 23.5 min)?
A: 0.92 % ID/g

Q: And the “Bone Mean” value ([2]; time 24.5 min)?
A: 0.88 % ID/g

Q: And the “Brain Mean” value ([2]; time 24.5 min)?
A: 1.29 % ID/g

Q: And the “Muscle Mean” value ([2]; time 24.5 min)?
A: 0.96 % ID/g

Q: And the “Bone Mean” value ([2]; time 25.5 min)?
A: 1.02 % ID/g

Q: What about the “Brain Mean” value ([2]; time 25.5 min) of the same compound?
A: 1.26 % ID/g

Q: And the “Muscle Mean” value ([2]; time 25.5 min)?
A: 0.97 % ID/g

Q: What about the “Bone Mean” value ([2]; time 26.5 min) of the same compound?
A: 0.88 % ID/g

Q: And the “Brain Mean” value ([2]; time 26.5 min)?
A: 1.23 % ID/g

Q: And the “Muscle Mean” value ([2]; time 26.5 min)?
A: 0.92 % ID/g

Q: What about the “Bone Mean” value ([2]; time 27.5 min) of the same compound?
A: 0.83 % ID/g

Q: And the “Brain Mean” value ([2]; time 27.5 min)?
A: 1.18 % ID/g

Q: And the “Muscle Mean” value ([2]; time 27.5 min)?
A: 0.89 % ID/g

Q: What about the “Bone Mean” value ([2]; time 28.5 min) of the same compound?
A: 0.92 % ID/g

Q: What about the “Brain Mean” value ([2]; time 28.5 min) of the same compound?
A: 1.17 % ID/g

Q: What about the “Muscle Mean” value ([2]; time 28.5 min) of the same compound?
A: 0.91 % ID/g

Q: What about the “Bone Mean” value ([2]; time 29.5 min) of the same compound?
A: 0.93 % ID/g

Q: And the “Brain Mean” value ([2]; time 29.5 min)?
A: 1.14 % ID/g

Q: What about the “Muscle Mean” value ([2]; time 29.5 min) of the same compound?
A: 0.94 % ID/g

Q: What about the “Bone Mean” value ([2]; time 30.5 min) of the same compound?
A: 0.92 % ID/g

Q: What about the “Brain Mean” value ([2]; time 30.5 min) of the same compound?
A: 1.11 % ID/g

Q: What about the “Muscle Mean” value ([2]; time 30.5 min) of the same compound?
A: 0.93 % ID/g

Q: What about the “Bone Mean” value ([2]; time 31.5 min) of the same compound?
A: 0.96 % ID/g

Q: And the “Brain Mean” value ([2]; time 31.5 min)?
A: 1.09 % ID/g

Q: And the “Muscle Mean” value ([2]; time 31.5 min)?
A: 0.99 % ID/g

Q: What about the “Bone Mean” value ([2]; time 32.5 min) of the same compound?
A: 0.85 % ID/g

Q: What about the “Brain Mean” value ([2]; time 32.5 min) of the same compound?
A: 1.07 % ID/g

Q: What about the “Muscle Mean” value ([2]; time 32.5 min) of the same compound?
A: 0.89 % ID/g

Q: And the “Bone Mean” value ([2]; time 33.5 min)?
A: 0.95 % ID/g

Q: And the “Brain Mean” value ([2]; time 33.5 min)?
A: 1.04 % ID/g

Q: And the “Muscle Mean” value ([2]; time 33.5 min)?
A: 0.93 % ID/g

Q: And the “Brain Mean” value ([2]; time 34.5 min)?
A: 1.04 % ID/g

Q: And the peak brain uptake ([2]; 90 min scans, 2.5 min post injection)?
A: 3.4 % ID/g

Q: And the “brain uptake after wash out” value ([2]; 90 min scans, by 59.5 min)?
A: 0.6 % ID/g

Q: What about the peak brain uptake ([2]; WT mice, approximately 2.5 min post injection) of the same compound?
A: 4.1±0.3 % ID/g

Q: And the “brain uptake after steady clearance of tracer” value ([2]; WT mice, by 60 minutes)?
A: 0.8±0.1 % ID/g

Q: And the “Bone uptake throughout the scan period” value ([2]; consistent with an absence of defluorination)?
A: remained low

Q: And the “crossing of the blood-brain-barrier” value ([2]; dynamic PET imaging in mice)?
A: readily crosses the blood-brain-barrier

Q: What about the peak brain uptake ([2]; four 60-minute PET scans, 2.5 min post injection) of the same compound?
A: 4.1 % ID/g

Q: What about the “brain uptake after steady clearance of tracer” value ([2]; four 60-minute PET scans, at 59.5 min) of the same compound?
A: 0.8 % ID/g
